Results published in patent US20240132484A1, “BROAD SPECTRUM ANTIVIRAL COMPOUNDS TARGETING THE SKI COMPLEX” (priority 2020, published 2024).
Several values for one entry are separate records, joined by “and”; a condition that tells them apart may be missing. Identical values can stand only once. Like-named read-outs stand apart in the source and are kept apart here.

Tests used:
cells (nuclei count) = conditions: for Relative cell count to DMSO controls, Average 1 μM / Relative cell count to DMSO controls, Average 5 μM / Relative cell count to DMSO controls, Average 10 μM / Relative cell count to DMSO controls, Average 25 μM / Relative cell count to DMSO controls, Average 50 μM: toxicity data, 100=DMSO control; for Toxicity Data, Average, Mean / Toxicity Data: Average, Mean: average of Exp 1-3 (SMW475, SMW477, SMW478); for Relative cell count to DMSO controls, Average (for correlation analysis): average value over the 5 tested concentrations (1 to 50 uM); for Toxicity Data: Average, Mean: n 9
SARS2 = type: cell-based, SARS-CoV-2; conditions: for Percentage Inhibition Average 1 μM / Screening data (Relative infection to DMSO controls) Average 1 μM: SARS2, 1 μM; for Screening data (Relative infection to DMSO controls) Average 1 μM / Screening data (Relative infection to DMSO controls) Average 5 μM / Screening data (Relative infection to DMSO controls) Average 10 μM / Screening data (Relative infection to DMSO controls) Average 25 μM / Screening data (Relative infection to DMSO controls) Average 50 μM / Average (relative infection to DMSO over the 5 tested concentrations): 100=DMSO control; for Percentage Inhibition Average 5 μM / Screening data (Relative infection to DMSO controls) Average 5 μM: SARS2, 5 μM; for Percentage Inhibition Average 10 μM / Screening data (Relative infection to DMSO controls) Average 10 μM: SARS2, 10 μM; for Percentage Inhibition Average 25 μM / Screening data (Relative infection to DMSO controls) Average 25 μM: SARS2, 25 μM; for Percentage Inhibition Average 50 μM / Screening data (Relative infection to DMSO controls) Average 50 μM: SARS2, 50 μM; for Average (relative infection to DMSO over the 5 tested concentrations): SARS2, average over 1 to 50 uM; for Infection Data, Average, Mean / Infection Data: Average, Mean: average of Exp 1-3 (SMW475, SMW477, SMW478); for Infection Data: Percentage Infection Relative to Appropriate DMSO Control: avg background subtraction, replicate wells; for Infection Data: Average, Mean: n 9

## COC(=O)c1csc(CN(CCN(C)C)Cc2ccsc2)c1 [SILCS31]
Cells (nuclei count)
  Relative cell count to DMSO controls, Average 1 μM: 113.44
  Relative cell count to DMSO controls, Average 5 μM: 114.77
  Relative cell count to DMSO controls, Average 10 μM: 109.5
  Relative cell count to DMSO controls, Average 25 μM: 102.57
  Relative cell count to DMSO controls, Average 50 μM: 96.45
  Relative cell count to DMSO controls, Average (for correlation analysis): 107.35
Cells (nuclei count); n 9, 1 uM
  Toxicity Data, Average, Mean: 113.44%
Cells (nuclei count); n 9, 5 uM
  Toxicity Data, Average, Mean: 114.77%
Cells (nuclei count); n 9, 10 uM
  Toxicity Data, Average, Mean: 109.50%
Cells (nuclei count); n 9, 25 uM
  Toxicity Data, Average, Mean: 102.57%
Cells (nuclei count); n 9, 50 uM
  Toxicity Data, Average, Mean: 96.45%
SARS2
  SARS2 antiviral activity: decrease in activity
  Percentage Inhibition Average 1 μM: 2.92%
  Screening data (Relative infection to DMSO controls) Average 1 μM: 97.08
  Percentage Inhibition Average 5 μM: 5.01%
  Screening data (Relative infection to DMSO controls) Average 5 μM: 94.99
  Percentage Inhibition Average 10 μM: −2.53%
  Screening data (Relative infection to DMSO controls) Average 10 μM: 102.53
  Percentage Inhibition Average 25 μM: 25.34%
  Screening data (Relative infection to DMSO controls) Average 25 μM: 74.66
  Percentage Inhibition Average 50 μM: 77.37%
  Screening data (Relative infection to DMSO controls) Average 50 μM: 22.63
  Average (relative infection to DMSO over the 5 tested concentrations): 78.38
SARS2; Exp 1 (SMW475), 1 uM, single well
  Percentage Infection Relative to Appropriate DMSO Control with Avg Background Subtraction: 89.46% and 114.99% and 104.36%
SARS2; Exp 1 (SMW475), 5 uM, single well
  Percentage Infection Relative to Appropriate DMSO Control with Avg Background Subtraction: 96.46% and 105.10% and 110.06%
SARS2; Exp 1 (SMW475), 10 uM, single well
  Percentage Infection Relative to Appropriate DMSO Control with Avg Background Subtraction: 122.44% and 140.70% and 131.42%
SARS2; Exp 1 (SMW475), 25 uM, single well
  Percentage Infection Relative to Appropriate DMSO Control with Avg Background Subtraction: 64.20% and 68.29% and 61.79%
SARS2; Exp 1 (SMW475), 50 uM, single well
  Percentage Infection Relative to Appropriate DMSO Control with Avg Background Subtraction: 27.95% and 23.70% and 21.94%
SARS2; Exp 2 (SMW477), 1 uM, single well
  Percentage Infection Relative to Appropriate DMSO Control with Avg Background Subtraction: 99.50% and 100.31% and 97.32%
SARS2; Exp 2 (SMW477), 5 uM, single well
  Percentage Infection Relative to Appropriate DMSO Control with Avg Background Subtraction: 126.44% and 106.51% and 105.32%
SARS2; Exp 2 (SMW477), 10 uM, single well
  Percentage Infection Relative to Appropriate DMSO Control with Avg Background Subtraction: 115.31% and 105.13% and 102.55%
SARS2; Exp 2 (SMW477), 25 uM, single well
  Percentage Infection Relative to Appropriate DMSO Control with Avg Background Subtraction: 73.95% and 82.92% and 76.95%
SARS2; Exp 2 (SMW477), 50 uM, single well
  Percentage Infection Relative to Appropriate DMSO Control with Avg Background Subtraction: 19.41% and 19.72% and 23.27%
SARS2; Exp 3 (SMW478), 1 uM, Greiner Celigo plates
  Percentage Infection Relative to Appropriate DMSO Control with Avg Background Subtraction: 90.68% and 87.75% and 89.34%
SARS2; Exp 3 (SMW478), 5 uM, Greiner Celigo plates
  Percentage Infection Relative to Appropriate DMSO Control with Avg Background Subtraction: 64.83% and 79.11% and 61.06%
SARS2; Exp 3 (SMW478), 10 uM, Greiner Celigo plates
  Percentage Infection Relative to Appropriate DMSO Control with Avg Background Subtraction: 63.55% and 89.71% and 51.99%
SARS2; Exp 3 (SMW478), 25 uM, Greiner Celigo plates
  Percentage Infection Relative to Appropriate DMSO Control with Avg Background Subtraction: 86.74% and 80.23% and 76.86%
SARS2; Exp 3 (SMW478), 50 uM, Greiner Celigo plates
  Percentage Infection Relative to Appropriate DMSO Control with Avg Background Subtraction: 26.23% and 18.61% and 22.87%
SARS2; n 9, 1 uM
  Infection Data, Average, Mean: 97.08%
SARS2; n 9, 5 uM
  Infection Data, Average, Mean: 94.99%
SARS2; n 9, 10 uM
  Infection Data, Average, Mean: 102.53%
SARS2; n 9, 25 uM
  Infection Data, Average, Mean: 74.66%
SARS2; n 9, 50 uM
  Infection Data, Average, Mean: 22.63%

## CN(C)CCN(Cc1ccsc1)Cc1cccc(-c2ccsc2)c1 [SILCS20]
Cells (nuclei count); 1 uM
  Toxicity Data: Average, Mean: 96.85%
Cells (nuclei count)
  Relative cell count to DMSO controls, Average 1 μM: 96.85
  Relative cell count to DMSO controls, Average 5 μM: 116.85
  Relative cell count to DMSO controls, Average 10 μM: 138.88
  Relative cell count to DMSO controls, Average 25 μM: 78.06
  Relative cell count to DMSO controls, Average 50 μM: 7.37
  Relative cell count to DMSO controls, Average (for correlation analysis): 87.60
Cells (nuclei count); 5 uM
  Toxicity Data: Average, Mean: 116.85%
Cells (nuclei count); 10 uM
  Toxicity Data: Average, Mean: 138.88%
Cells (nuclei count); 25 uM
  Toxicity Data: Average, Mean: 78.06%
Cells (nuclei count); 50 uM
  Toxicity Data: Average, Mean: 7.37%
SARS2; 1 uM, Exp 1 (SMW475)
  Infection Data: Percentage Infection Relative to Appropriate DMSO Control: 104.96% and 108.84% and 98.09%
SARS2; 1 uM, Exp 2 (SMW477)
  Infection Data: Percentage Infection Relative to Appropriate DMSO Control: 151.25% and 151.34% and 136.14%
SARS2; 1 uM, Exp 3 (SMW478)
  Infection Data: Percentage Infection Relative to Appropriate DMSO Control: 92.92% and 94.78% and 98.52%
SARS2; 1 uM
  Infection Data: Average, Mean: 115.20%
SARS2; 5 uM, Exp 1 (SMW475)
  Infection Data: Percentage Infection Relative to Appropriate DMSO Control: 71.77% and 48.90% and 69.38%
SARS2; 5 uM, Exp 2 (SMW477)
  Infection Data: Percentage Infection Relative to Appropriate DMSO Control: 133.79% and 116.24% and 114.33%
SARS2; 5 uM, Exp 3 (SMW478)
  Infection Data: Percentage Infection Relative to Appropriate DMSO Control: 62.84% and 53.65% and 64.98%
SARS2; 5 uM
  Infection Data: Average, Mean: 81.76%
SARS2; 10 uM, Exp 1 (SMW475)
  Infection Data: Percentage Infection Relative to Appropriate DMSO Control: 45.14% and 27.86% and 26.38%
SARS2; 10 uM, Exp 2 (SMW477)
  Infection Data: Percentage Infection Relative to Appropriate DMSO Control: 76.01% and 46.79% and 30.46%
SARS2; 10 uM, Exp 3 (SMW478)
  Infection Data: Percentage Infection Relative to Appropriate DMSO Control: 30.07% and 13.27% and 56.68%
SARS2; 10 uM
  Infection Data: Average, Mean: 39.18%
SARS2; 25 uM, Exp 1 (SMW475)
  Infection Data: Percentage Infection Relative to Appropriate DMSO Control: 13.25% and 8.47% and 6.46%
SARS2; 25 uM, Exp 2 (SMW477)
  Infection Data: Percentage Infection Relative to Appropriate DMSO Control: 9.75% and 7.72% and 7.01%
SARS2; 25 uM, Exp 3 (SMW478)
  Infection Data: Percentage Infection Relative to Appropriate DMSO Control: 6.76% and 9.52% and 8.68%
SARS2; 25 uM
  Infection Data: Average, Mean: 8.63%
SARS2; 50 uM, Exp 1 (SMW475)
  Infection Data: Percentage Infection Relative to Appropriate DMSO Control: −0.47% and 0.47% and 1.44%
SARS2; 50 uM, Exp 2 (SMW477)
  Infection Data: Percentage Infection Relative to Appropriate DMSO Control: −0.57% and −0.19% and −1.43%
SARS2; 50 uM, Exp 3 (SMW478)
  Infection Data: Percentage Infection Relative to Appropriate DMSO Control: 125.56% and 159.57% and 149.88%
SARS2; 50 uM
  Infection Data: Average, Mean: 48.15%
SARS2
  Percentage Inhibition Average 1 μM: −15.20%
  Screening data (Relative infection to DMSO controls) Average 1 μM: 115.20
  Percentage Inhibition Average 5 μM: 18.24%
  Screening data (Relative infection to DMSO controls) Average 5 μM: 81.76
  Percentage Inhibition Average 10 μM: 60.82%
  Screening data (Relative infection to DMSO controls) Average 10 μM: 39.18
  Percentage Inhibition Average 25 μM: 91.37%
  Screening data (Relative infection to DMSO controls) Average 25 μM: 8.63
  Percentage Inhibition Average 50 μM: 51.85%
  Screening data (Relative infection to DMSO controls) Average 50 μM: 48.15
  Average (relative infection to DMSO over the 5 tested concentrations): 58.58
